Earlier results as cited in patent US5240711A, “Transdermal therapeutic system comprising as active component buprenorphine” (LTS Lohmann Therapie-Systeme GmbH & Co. KG, priority 1989, dated 1993).

Columns and labels:
[1] = tested on: human skin

For `CO[C@]12CC[C@@]3(C[C@@H]1[C@](C)(O)C(C)(C)C)[C@H]1Cc4ccc(O)c5c4[C@@]3(CCN1CC1CC1)[C@H]2O5` [buprenorphine, 17-(cyclopropylmethyl)-α-(1,1-dimethylethyl)-4,5-epoxy-18,19-dihydro-3-hydroxy-6-methoxy-α-methyl-6,14-ethenomorphinane-7-methanol], the “penetration through the human skin” value [1] is listed as “only badly penetrates through the human skin” and the “solubility in conventional organic solvents and water” value is listed as “very slight solubility”.
